From patent US9434687B2, “Detection of synthetic cannabinoids” (priority 2011, dated 2016)

Tests used:
Type in all cases: binding, sheep
[1] = system: antiserum raised to Immunogen I (Hapten A-BTG); test: Competitive ELISA microtiter plate assay, antiserum raised to Immunogen I, conjugate Hapten A-HRP (Example 19)
Experimental: (§1) Aqueous solutions of the immunogens prepared in examples 5 and 13 were formulated with Freund's Complete Adjuvant (FCA) to form emulsions consisting of 2 mg/ml Immunogen I and 2 mg/ml of Immunogen II in 50% (v/v) FCA. Three sheep were immunised with each emulsion (1° immunisations), 0.25 ml being intramuscularly injected at four sites in the rump of each animal. Subsequent immunisations (boosts 2-8) contained 1 mg/ml Immunogen I and 1 mg/ml Immunogen II. All boosts were emulsified in 50% (v/v) Freund's Incomplete Adjuvant (FIA) and administered to the appropriate sheep in the same manner as the 1° immunisations, at monthly intervals. Blood sampling took place 7-14 days after each boost. Each sample was processed to produce antiserum, which was further purified by caprylic acid and ammonium sulphate precipitation to yield an immunoglobulin (Ig) fraction. The Ig fraction was evaluated by competitive ELISA microtiter plate assay, as described in example 19 below.
(§2) (a) The wells of an enhanced binding 96 well polystyrene microtiter plate were coated with the Ig fraction of the antiserum raised to Immunogen I (Hapten A-BTG—example 5) and diluted in 10 mM Tris, pH8.5 (125 μl/well). The appropriate antibody coating concentration was determined using standard ELISA checkerboard techniques. The plate was incubated for 2 hours at 37° C., washed 4 times over a 10-minute period with Tris buffered saline containing Tween 20 (TBST) and tapped dry. Standard solutions of JWH synthetic cannabinoids, metabolites and selected molecules were prepared in TBST and 50 μl of each was added to the appropriate wells. 75 μl of conjugate (Hapten A-HRP) diluted in Tris buffer containing EDTA, D-mannitol, sucrose, thimerosal and BSA, was added to each of the wells. The appropriate dilution of conjugate was also determined using standard ELISA checkerboard techniques. The plate was incubated at 25° C. for 1 hour. The excess unbound conjugate was removed by washing 6 times over a 10-minute period with TBST and tapped dry. 125 μl of tetramethylbenzedine (TMB) substrate solution was added to each well of the plate that was then incubated for 15-20 minutes in the dark at room temperature. The reaction was terminated by addition of 125 μl of 0.2M sulphuric acid to each well. The absorbance was then measured at 450 nm using a microtiter plate reader.
(§3) Employing each series of standards, calibration curves were generated and these were used to determine the specificity of the immunoassay for the JWH synthetic cannabinoids, metabolites and selected molecules. The results of this study are presented in Tables 1 to 3, cross-reactivity being calculated according to the following formula: % CR=IC50,JWH-018/IC50,CR×100
(§4) Where % CR is the percentage cross-reactivity, IC50, JWH-018 is the concentration of JWH-018 that causes 50% displacement of signal and IC50, CR is the concentration of JWH synthetic cannabinoid/metabolite/selected molecule that causes 50% displacement of signal.
(b) In a similar manner to that described in Example 19(a), the wells of a 96 well microtiter plate were coated with the Ig fraction of the antiserum raised to Immunogen I (Hapten A-BTG). Conjugate (Hapten A-HRP) was employed as a detection reagent.
Table 2: Data generated from a competitive microtiter plate assay for JWH synthetic cannabinoids and metabolites, employing antiserum raised to Immunogen I (Hapten A-BTG) and conjugate (Hapten A-HRP) as detection reagent.
(§5) (d) The resulting competitive ELISA for synthetic cannabinoids and metabolites was also employed to test for the 5-fluoropentyl derivative of JWH-018, (1-(5-fluoropentyl)indol-3yl (1-naphthyl) methanone (Table 4).

[2] = system: antiserum raised to Immunogen II (Hapten B-BTG); test: Competitive ELISA microtiter plate assay, antiserum raised to Immunogen II, conjugate Hapten A-HRP (Example 19)
Experimental: as §1, §2, §3, §4
Table 1: Data generated from a competitive microtiter plate assay for JWH synthetic cannabinoids and metabolites, employing antiserum raised to Immunogen II (Hapten B-BTG) and conjugate (Hapten A-HRP) as detection reagent.
as §5

[3] = system: antibodies raised to Immunogens I & II; test: Competitive ELISA, selected molecules as potential cross-reactants (Table 3)
Experimental: as §2, §3, §4
The antibody produced from Immunogen I is able to bind to JWH molecules known to be incorporated in herbal therapeutics such as JWH-018, proposed metabolites such as M2 (Wintermeyer et al 2010), and potential metabolites such as M5. The detection and quantification of other JWH SSCs is also provided for, the antibodies of the invention bind a range of molecules comprising the 3-(1-naphthoyl)-1H-indole structure (e.g. JWH-071, JWH-398, M1 etc.). […] The concept of using the antibodies of the invention to detect and determine future stealth synthetic cannabinoids is highlighted in Table 4; the 5-fluoropentyl derivative known to bind the CB 1 receptor, but which as of yet has not been detected in herbal therapeutics or similar substances, binds to antibodies raised from Immunogens I and II.

[4] = Table 2, CR based on 100% for JWH-018
[5] = Table 2, detecting agent derived from Hapten-A, 40 ng/ml highest concentration tested
[6] = Table 1, CR based on 100% for JWH-018
[7] = Table 1, detecting agent derived from Hapten-A, 40 ng/ml highest concentration tested
[8] = Table 4, Immunogen I, relative to JWH-018
[9] = Table 4, Immunogen II, relative to JWH-018

SMILES | % Cross-reactivity [1, 4] | IC50 [1, 5] | % Cross-reactivity [2, 6] | IC50 [2, 7] | binding to the antibody produced from Immunogen I (in words) [1] | IC50 ([1]; Table 4, Immunogen I) [ng/mL] | % Cross-reactivity [1, 8] [%] | IC50 ([2]; Table 4, Immunogen II) [ng/mL] | % Cross-reactivity [2, 9] [%] | binding / cross-reaction with antibodies raised from Immunogens I and II (in words) [3]
CCCCCn1cc(C(=O)c2cccc3ccccc23)c2c(O)cccc21 [4-OH JWH-018, JWH-018 4-hydroxyindole metabolite] | 10.62% | 25.51 ng/mL | 23.03% | 9.16 ng/mL | – | – | – | – | – | –
CCCCCn1cc(C(=O)c2cccc3ccccc23)c2cc(O)ccc21 [5-OH JWH-018, JWH-018 5-hydroxyindole metabolite] | 694.87% | 0.39 ng/mL | 130.25% | 1.62 ng/mL | able to bind | – | – | – | – | –
CCCCCn1cc(C(=O)c2cccc3ccccc23)c2ccc(O)cc21 [6-OH JWH-018, JWH-018 6-hydroxyindole metabolite] | 132.84% | 2.04 ng/mL | 215.31% | 0.98 ng/mL | able to bind | – | – | – | – | –
O=C(c1cccc2ccccc12)c1cn(CCCCCF)c2ccccc12 [AM-2201, 1-(5-Fluoropentyl)indol-3-yl (1-naphthyl) methanone] | – | – | – | – | – | 0.02 | 11500.00 | 0.22 | 908.00 | binds
O=C(c1cccc2ccccc12)c1cn(CCCCCO)c2ccccc12 [JWH-018 N-(5-hydroxypentyl) metabolite] | 1505.56% | 0.18 ng/mL | 183.48% | 1.15 ng/mL | – | – | – | – | – | –
O=C(O)CCCCn1cc(C(=O)c2cccc3ccccc23)c2ccccc21 [JWH-018 N-pentanoic acid metabolite] | 645.24% | 0.42 ng/mL | 38.50% | 5.48 ng/mL | – | – | – | – | – | bind
CCCCCn1cc(C(=O)c2cccc3ccccc23)c2ccccc21 [JWH-018] | 100.00% | 2.71 ng/mL | 100.00% | 2.11 ng/mL | able to bind | 2.30 | 100.00 | 1.97 | 100.00 | –
CCCCn1cc(C(=O)c2cccc3ccccc23)c2ccccc21 [JWH-073] | 291.40% | 0.93 ng/mL | 135.26% | 1.56 ng/mL | – | – | – | – | – | –
O=C(c1cccc2ccccc12)c1cn(CCN2CCOCC2)c2ccccc12 [JWH-200] | 874.19% | 0.31 ng/mL | 127.11% | 1.66 ng/mL | – | – | – | – | – | –
CCCCCn1cc(C(=O)c2ccc(Cl)c3ccccc23)c2ccccc21 [JWH-398] | <<6.78% | >>40 ng/ml | 12.02% | 17.55 ng/mL | – | – | – | – | – | bind
O=C(c1cccc2ccccc12)c1c[nH]c2ccccc12 [N-desalkyl JWH-018, 3-(1-naphthoyl)-1H-Indole] | 70.57% | 3.84 ng/mL | <<5.28% | >>40 ng/ml | – | – | – | – | – | –
